# Assay results from patent publication US20230028441A1, “NOVEL HETEROARYL-TRIAZOLE COMPOUNDS AS PESTICIDES” (Bayer Aktiengesellschaft, priority 2019, published 2023).
# Key:
# Assay type in all cases: in vivo
# [1] = test system: adult unfed cat fleas (Ctenocephalides felis); experiment: Ctenocephalides felis oral test; details: 48 h, 100 ppm in cattle blood, after 2 days
# Method in brief: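 About 20 adult unfed Ctenocephalides felis fed through parafilm on cattle blood dosed with compound (DMSO stock diluted in blood), blood chamber at 37°C, fleas at room temperature. Mortality (%) scored after 2 days; 100% means all fleas killed.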
# [2] = test system: cattle tick larvae (Rhipicephalus microplus), strain Parkhurst, resistant against synthetic pyrethroids; experiment: Rhipicephalus (Boophilus) microplus in-vitro contact test, larval cattle tick; details: 5 μg/cm^2 (=500 g/ha), after 48 hours, read-out: efficacy (larvae dead or moribund)
# Method in brief: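 Acetone solutions of compound were coated on glass tube walls (900 ppm giving 5 μg/cm^2) and dried. 20–50 pyrethroid-resistant Parkhurst larvae were held per tube at 27° C and 85% relative humidity; after 48 h negative geotaxis scored efficacy as percent larvae dead or moribund.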
# [3] = test system: adult cat fleas (Ctenocephalides felis); experiment: Ctenocephalides felis in-vitro contact test, adult cat flea; details: 5 μg/cm^2 (=500 g/ha), after 48 hours, read-out: efficacy (fleas dead or moribund)
# Method in brief: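 Acetone solutions were coated on glass tube walls, 900 ppm giving 5 μg/cm^2. After drying, 5-10 adult fleas per tube were held 48 h at room temperature. Fleas unable to climb away from a 45-50 °C heating plate within 5 min were scored dead or moribund, as % efficacy.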
# [4] = test system: cattle ticks (Rhipicephalus microplus) strain Parkhurst, SP-resistant; experiment: Rhipicephalus (Boophilus) microplus dip test; details: 100 ppm, egg deposition after 7 days
# Procedure: Test animal: cattle ticks (Rhipicephalus microplus) strain Parkhurst, SP-resistant
# Solvent: dimethyl sulfoxide
# To produce a suitable preparation of active compound, 10 mg of active compound are dissolved in 0.5 mL solvent, and the concentrate is diluted with water to the desired concentration.
# This compound solution is pipetted into tubes. 8-10 engorged, adult, female cattle ticks (Rhipicephalus microplus) are placed in perforated tubes. These tubes are immersed in the aqueous compound solution until the ticks are completely moistened. After the liquid has drained off, the ticks are transferred to a filter paper in a plastic tray and stored in a climate chamber.
# After 7 days egg deposition of fertile eggs is monitored. Eggs where fertility is not visible are stored in a climate chamber till hatching after about 42 days. An efficacy of 100% means all eggs are infertile; 0% means all eggs are fertile.
# [5] = test system: larvae of the banded cucumber beetle (Diabrotica balteata); experiment: Diabrotica balteata spray test; details: 168 h, 100 g/ha (=32 μg/well), after 7 days, wheat seeds, read-out: efficacy (seedlings grown up)
# Method in brief: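 Germinated wheat seedlings (5 per well, agar plates) sprayed with compound in acetone/DMF diluted in water with 1000 ppm emulsifier, then infested with 10-20 larvae per unit. Efficacy scored after 7 days as % seedling growth relative to untreated, uninfested control (100% = normal growth, 0% = none).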
# [6] = test system: adult engorged female ticks (Rhipicephalus microplus); experiment: Rhipicephalus (Boophilus) microplus injection test; details: 168 h, egg deposition after 7 days, read-out: efficacy (infertile eggs); for pest or weed control at 0.004 mg: 4 μg/animal; for pest or weed control at 0.02 mg: 20 μg/animal
# Method in brief: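 Compound was dissolved in DMSO at 10 mg per 0.5 mL and diluted with DMSO to the test concentration. Five engorged adult females received a 1 μL abdominal injection and were kept in a climate chamber. After 7 days, fertile egg deposition was scored, with unclear eggs held until hatching at about 42 days; 100% efficacy means all eggs were infertile.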
# [7] = test system: green peach aphid (Myzus persicae); experiment: Myzus persicae oral test; details: 120 h
# Method in brief: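 Compound was dissolved at 1 part by weight in 100 parts acetone, then diluted with water to test concentration and combined with IPL41 insect medium (33%+15% sugar). A mixed aphid population fed on this through a parafilm seal, and mortality (%) was scored after 5 days.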
# [8] = test system: fall armyworm larvae (Spodoptera frugiperda); experiment: Spodoptera frugiperda spray test (maize leaf sections); details: 168 h
# Method in brief: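 Maize leaf sections were sprayed with compound formulated in acetone/DMF and diluted in water containing 1000 ppm emulsifier. Once dry, sections were infested with fall armyworm larvae. Mortality (%) was scored after 7 days.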
# [9] = test system: adult brown dog ticks (Rhipicephalus sanguineus); experiment: Rhipicephalus sanguineus in-vitro contact test with adult brown dog ticks; details: after 48 hours, read-out: efficacy (ticks dead or moribund); for pest or weed control at 1 µg/cm2, 100 g/ha: 1 μg/cm^2 (=100 g/ha); for pest or weed control at 5 µg/cm2, 500 g/ha: 5 μg/cm^2 (=500 g/ha)
# Method in brief: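 Compound in acetone coated onto glass tube inner walls at 900 ppm, giving 5 μg/cm^2. Adult ticks (5-10 per tube) held at room temperature for 48 h, then placed on a 45-50° C. heating plate for up to 5 min. Ticks unable to climb away counted dead or moribund; efficacy given as % dead/moribund.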
# [10] = test system: larvae of the southern green stink bug (Nezara viridula); experiment: Nezara viridula spray test; details: in Hordeum vulgare, 96 h
# Method in brief: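 Barley plants infested with Nezara viridula larvae were sprayed with compound in acetone/dimethylformamide, diluted in water containing 1000 ppm alkylarylpolyglycol ether emulsifier. Mortality (%) was scored after 4 days; 100% means all stink bugs killed.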
# [11] = test system: green peach aphid (Myzus persicae); experiment: Myzus persicae spray test; details: foliar, 120 h, 100 g/ha, after 5 days, Chinese cabbage leaf disks
# Method in brief: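 Chinese cabbage leaf disks carrying all instars of Myzus persicae were sprayed with compound. The formulation was acetone/dimethylformamide diluted in water with 1000 ppm alkylarylpolyglycol ether emulsifier. Percent mortality was scored after 5 days, with 100% meaning all aphids killed.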
# [12] = test system: southern root-knot nematode (Meloidogyne incognita); experiment: Meloidogyne incognita test; details: 336 h, after 14 days, read-out: nematicidal activity (gall formation)
# Procedure: Solvent: 125.0 parts by weight of acetone
# To produce a suitable preparation of active compound, 1 part by weight of active compound is mixed with the stated amount of solvent, and the concentrate is diluted with water to the desired concentration.
# Vessels are filled with sand, a solution of the active ingredient, a suspension containing eggs and larvae of the southern root-knot nematode (Meloidogyne incognita) and salad seeds. The salad seeds germinate and the seedlings grow. Galls develop in the roots.
# After 14 days the nematicidal activity is determined on the basis of the percentage of gall formation. 100% means no galls were found and 0% means the number of galls found on the roots of the treated plants was equal to that in untreated control plants.
# [13] = test system: caterpillars of the fall army worm (Spodoptera frugiperda); experiment: Spodoptera frugiperda spray test (cotton leaves); details: 168 h
# Method in brief: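 Cotton leaves sprayed with compound in water/DMF with 1000 ppm alkylaryl polyglycol ether emulsifier, ammonium salt and/or penetration enhancer at 1000 ppm added if necessary, then infested with fall armyworm caterpillars. Mortality in % scored after 7 days; 100% means all caterpillars killed.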
# [14] = test system: brown planthopper (Nilaparvata lugens); experiment: Nilaparvata lugens spray test; details: in Oryza sativa, 96 h
# Method in brief: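 Rice plants (Oryza sativa) sprayed with compound in acetone/DMF diluted in water containing 1000 ppm alkylarylpolyglycol ether emulsifier, then infested with planthoppers. Mortality % scored after 4 days (100% = all killed, 0% = none killed).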
smiles,measurement,setting,value
"CC(NC(=O)c1cc(Cl)cc(C(F)(F)F)c1)c1nc(N)nn1-c1ncccn1 (racemic) [I-004, N-[1-(5-amino-2-pyrimidin-2-yl-1,2,4-triazol-3-yl)ethyl]-3-chloro-5-(trifluoromethyl)benzamide]",mortality at 100 ppm,[1],100%
same,pest or weed control at 5 µg/cm2,[2],90%
same,pest or weed control at 5 µg/cm2,[3],100%
same,efficacy (infertile eggs),[4],80%
same,"pest or weed control at 32 µg/disc, 100 g/ha",[5],100%
same,pest or weed control at 0.004 mg,[6],100%
same,mortality at 4 ppm,[7],100%
"CC(NC(=O)c1cc(C(F)(F)F)cc(C(F)(F)F)c1)c1nc(N(C)C(=O)OC(C)(C)C)nn1-c1ncccn1 (racemic) [I-009, tert-butyl N-[5-[1-[[3,5-bis(trifluoromethyl)benzoyl]amino]ethyl]-1-pyrimidin-2-yl-1,2,4-triazol-3-yl]-N-methyl-carbamate]",mortality at 100 ppm,[1],100%
same,pest or weed control at 5 µg/cm2,[2],100%
same,pest or weed control at 5 µg/cm2,[3],90%
same,efficacy (infertile eggs),[4],80%
same,mortality at 100 g/ha,[8],100%
same,"pest or weed control at 1 µg/cm2, 100 g/ha",[9],80%
same,"pest or weed control at 5 µg/cm2, 500 g/ha",[9],100%
same,"pest or weed control at 32 µg/disc, 100 g/ha",[5],100%
same,pest or weed control at 0.004 mg,[6],100%
same,mortality at 4 ppm,[7],100%
same,mortality at 100 g/ha,[10],100%
"CC(NC(=O)c1cc(Cl)cc(C(F)(F)F)c1)c1nc(C(=O)NC2CC2)nn1-c1ncccn1 (single isomer, unassigned) [I-076, 5-[1-[[3-chloro-5-(trifluoromethyl)benzoyl]amino]ethyl]-N-cyclopropyl-1-pyrimidin-2-yl-1,2,4-triazole-3-carboxamide]",mortality at 100 ppm,[1],100%
same,pest or weed control at 5 µg/cm2,[2],90%
same,pest or weed control at 5 µg/cm2,[3],100%
same,mortality at 100 g/ha,[8],100%
same,pest or weed control at 0.004 mg,[6],100%
same,pest or weed control at 0.02 mg,[6],100%
same,mortality at 100 g/ha,[11],90%
same,pest or weed control at 20 ppm,[12],90%
same,mortality at 4 ppm,[7],100%
same,mortality at 100 g/ha,[10],100%
CC(NC(=O)c1cc(Cl)cc(S(C)(=O)=O)c1)c1nc(NC(=O)C2CC2)nn1-c1ccc(Cl)cn1 (stereo not shown) [I-013],mortality at 100 ppm,[1],100%
same,pest or weed control at 5 µg/cm2,[2],90%
same,mortality at 20 ppm,[13],100%
same,efficacy (infertile eggs),[4],80%
same,pest or weed control at 0.004 mg,[6],100%
same,pest or weed control at 0.02 mg,[6],100%
CNC(=O)c1nc(C(C)NC(=O)c2cc(Cl)cc(C(F)(F)F)c2)n(-c2ncccn2)n1 (stereo not shown) [I-077],mortality at 100 ppm,[1],100%
same,mortality at 100 g/ha,[14],90%
same,pest or weed control at 5 µg/cm2,[3],90%
same,pest or weed control at 0.004 mg,[6],100%
same,pest or weed control at 0.02 mg,[6],100%
same,mortality at 100 g/ha,[11],90%
same,pest or weed control at 20 ppm,[12],90%
same,mortality at 4 ppm,[7],100%
same,mortality at 100 g/ha,[10],100%
CC(NC(=O)c1cc(Cl)cc(C(F)(F)F)c1)c1nc(C(=O)NC2CC2)nn1-c1ccc(C#N)cn1 (stereo not shown) [I-078],mortality at 100 ppm,[1],100%
same,pest or weed control at 5 µg/cm2,[2],90%
same,mortality at 100 g/ha,[8],100%
same,"pest or weed control at 32 µg/disc, 100 g/ha",[5],100%
same,pest or weed control at 0.004 mg,[6],100%
same,pest or weed control at 0.02 mg,[6],100%
same,pest or weed control at 20 ppm,[12],90%
same,mortality at 4 ppm,[7],90%
C=CC(=O)Nc1nc(C(C)NC(=O)c2cc(Cl)cc(C(F)(F)F)c2)n(-c2ccc(Cl)cn2)n1 (stereo not shown) [I-123],pest or weed control at 5 µg/cm2,[2],90%
same,pest or weed control at 5 µg/cm2,[3],100%
same,mortality at 100 g/ha,[8],100%
same,"pest or weed control at 32 µg/disc, 100 g/ha",[5],100%
same,pest or weed control at 20 ppm,[12],90%
same,mortality at 500 g/ha,[10],100%
CNc1nc([C@H](C)NC(=O)c2cc(Br)cc(OC(F)(F)F)c2)n(-c2ncccn2)n1 [I-130],pest or weed control at 5 µg/cm2,[2],100%
same,mortality at 500 g/ha,[14],90%
same,mortality at 20 ppm,[13],100%
same,pest or weed control at 5 µg/cm2,[3],100%
same,mortality at 100 g/ha,[8],100%
same,"pest or weed control at 1 µg/cm2, 100 g/ha",[9],100%
same,"pest or weed control at 5 µg/cm2, 500 g/ha",[9],100%
same,"pest or weed control at 32 µg/disc, 100 g/ha",[5],100%
same,mortality at 100 g/ha,[11],100%
same,pest or weed control at 20 ppm,[12],90%
same,mortality at 500 g/ha,[10],100%
CNc1nc([C@H](C)NC(=O)c2cc(OC(F)(F)F)cc(C3CC3)c2)n(-c2ncccn2)n1 [I-132],pest or weed control at 5 µg/cm2,[2],100%
same,mortality at 20 ppm,[13],100%
same,pest or weed control at 5 µg/cm2,[3],100%
same,mortality at 100 g/ha,[8],100%
same,"pest or weed control at 1 µg/cm2, 100 g/ha",[9],100%
same,"pest or weed control at 5 µg/cm2, 500 g/ha",[9],100%
same,"pest or weed control at 32 µg/disc, 100 g/ha",[5],100%
same,mortality at 100 g/ha,[11],90%
same,pest or weed control at 20 ppm,[12],90%
same,mortality at 500 g/ha,[10],100%
C[C@H](NC(=O)c1cc(Br)cc(Br)c1)c1nc(N2CCOCC2)nn1-c1ncccn1 [I-144],pest or weed control at 5 µg/cm2,[2],100%
same,pest or weed control at 5 µg/cm2,[3],90%
same,"pest or weed control at 32 µg/disc, 100 g/ha",[5],100%
same,pest or weed control at 20 ppm,[12],90%
"C[C@H](NC(=O)c1cc(C(F)(F)F)cc(C(F)(F)F)c1)c1nc(N2CCOCC2)nn1-c1ncccn1 [I-145, N-[(1S)-1-(5-morpholino-2-pyrimidin-2-yl-1,2,4-triazol-3-yl)ethyl]-3,5-bis(trifluoromethyl)benzamide]",pest or weed control at 5 µg/cm2,[2],100%
same,pest or weed control at 5 µg/cm2,[3],80%
same,mortality at 100 g/ha,[8],100%
same,"pest or weed control at 32 µg/disc, 100 g/ha",[5],100%
same,pest or weed control at 20 ppm,[12],100%
same,mortality at 500 g/ha,[10],100%
